Where “and” joins values, the source holds several entries; their conditions need not be identical. Identical values can stand only once. Inconclusive results and toxic doses are left out. Cut-off read from the data, not from the text of the source: active = T/C of 150% or more; inactive = T/C below 125%.
Tested on: L1210 leukemia ip in BDF1 mice, survival T/C
Assay: NCI In Vivo Anticancer Drug Screen. Data for tumor model L1210 Leukemia (intraperitoneal) in B6D2F1 (BDF1) mice
Conditions: endpoint: mean survival time, higher = longer survival
Procedure, shortened: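 Transplanted-tumor mice were given test agent; controls received vehicle only. Survival readings from the two groups were divided (treated over control).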

[1] = dose: 100.0 mg/kg/injection, schedule: Q01DX009 (ip), vehicle: Klucel (hydroxypropylcellulose) (HPC)
[2] = dose: 100.0 mg/kg/injection, schedule: Q04DX003 (ip), vehicle: Klucel (hydroxypropylcellulose) (HPC)
[3] = dose: 200.0 mg/kg/injection, schedule: Q01DX009 (ip), vehicle: Klucel (hydroxypropylcellulose) (HPC)
[4] = dose: 200.0 mg/kg/injection, schedule: Q04DX003 (ip), vehicle: Klucel (hydroxypropylcellulose) (HPC)
[5] = dose: 400.0 mg/kg/injection, schedule: Q01DX009 (ip), vehicle: Klucel (hydroxypropylcellulose) (HPC)
[6] = dose: 400.0 mg/kg/injection, schedule: Q04DX003 (ip), vehicle: Klucel (hydroxypropylcellulose) (HPC)
[7] = dose: 100.0 mg/kg/injection, schedule: Q01DX001 (ip), vehicle: saline
[8] = dose: 200.0 mg/kg/injection, schedule: Q01DX001 (ip), vehicle: saline
[9] = dose: 400.0 mg/kg/injection, schedule: Q01DX001 (ip), vehicle: saline
[10] = dose: 100.0 mg/kg/injection, schedule: Q04DX003 (ip), vehicle: saline with Tween-80
[11] = dose: 200.0 mg/kg/injection, schedule: Q04DX003 (ip), vehicle: saline with Tween-80
[12] = dose: 400.0 mg/kg/injection, schedule: Q04DX003 (ip), vehicle: saline with Tween-80
[13] = dose: 100.0 mg/kg/injection, schedule: Q01DX009 (ip), vehicle: saline
[14] = dose: 200.0 mg/kg/injection, schedule: Q01DX009 (ip), vehicle: saline
[15] = dose: 100.0 mg/kg/injection, schedule: Q04DX002 (ip), vehicle: Klucel (hydroxypropylcellulose) (HPC)
[16] = dose: 200.0 mg/kg/injection, schedule: Q04DX002 (ip), vehicle: Klucel (hydroxypropylcellulose) (HPC)
[17] = dose: 400.0 mg/kg/injection, schedule: Q04DX002 (ip), vehicle: Klucel (hydroxypropylcellulose) (HPC)

Measured: T/C

C[C@@H]1CC[C@@]2(OC1)O[C@H]1C[C@H]3[C@@H]4CC=C5C(C)(C)C(=O)C(O)=C[C@]5(C)[C@H]4CC[C@]3(C)[C@H]1[C@@H]2C
inactive: dose: 100.0 mg/kg/injection, schedule: Q04DX003 (sc), vehicle: steriod suspending solution 98 % of control | dose: 200.0 mg/kg/injection, schedule: Q04DX003 (sc), vehicle: steriod suspending solution 110 % of control | dose: 400.0 mg/kg/injection, schedule: Q04DX003 (sc), vehicle: steriod suspending solution 98 % of control

Clc1ccccc1C(CI)c1ccccc1Cl
inactive: dose: 5.0 mg/kg/injection, schedule: Q01DX001 (ip), vehicle: other 98 % of control | dose: 10.0 mg/kg/injection, schedule: Q01DX001 (ip), vehicle: other 98 % of control | dose: 20.0 mg/kg/injection, schedule: Q01DX001 (ip), vehicle: other 98 % of control | dose: 40.0 mg/kg/injection, schedule: Q01DX001 (ip), vehicle: other 100 % of control | dose: 80.0 mg/kg/injection, schedule: Q01DX001 (ip), vehicle: other 100 % of control

Cc1ccc(Nc2cc(N)nc(N)n2)cc1Cl
inactive: dose: 100.0 mg/kg/injection, schedule: Q01DX Z (ip), vehicle: methylcellulose (MC) 101 % of control | dose: 200.0 mg/kg/injection, schedule: Q01DX Z (ip), vehicle: methylcellulose (MC) 89 % of control

Cc1ccc(C(=O)/C(=C/c2ccccc2)c2ccccc2)cc1
inactive: [1] 101 % of control | [2] 96 % of control | [3] 97 % of control | [4] 93 % of control | [5] 88 % of control | [6] 96 % of control

COC(=O)CNC(=O)C1CSC(C)(C)N1 (configuration not stated)
inactive: dose: 100.0 mg/kg/injection, schedule: Q01DX001 (ip), vehicle: steriod suspending solution 100 % of control | dose: 200.0 mg/kg/injection, schedule: Q01DX001 (ip), vehicle: steriod suspending solution 97 % of control | dose: 400.0 mg/kg/injection, schedule: Q01DX001 (ip), vehicle: steriod suspending solution 100 % of control

COc1ccc(C2(OC)Oc3ccccc3C(=O)C2(O)O)cc1 (configuration not stated)
inactive: dose: 50.0 mg/kg/injection, schedule: Q01DX001 (ip), vehicle: saline 101 % of control | [7] 104 % of control | [8] 101 % of control | [9] 104 % of control

CC1=C(C)CC2(C)N(C)CC2(C)C1 (configuration not stated)
inactive: dose: 37.0 mg/kg/injection, schedule: Q04DX003 (ip), vehicle: other 104 % of control | dose: 37.5 mg/kg/injection, schedule: Q01DX009 (ip), vehicle: other 110 % of control | dose: 75.0 mg/kg/injection, schedule: Q01DX001 (ip), vehicle: other 107 % of control | dose: 75.0 mg/kg/injection, schedule: Q01DX009 (ip), vehicle: other 100 % of control | dose: 75.0 mg/kg/injection, schedule: Q04DX003 (ip), vehicle: other 101 % of control | dose: 150.0 mg/kg/injection, schedule: Q01DX001 (ip), vehicle: other 115 % of control | dose: 150.0 mg/kg/injection, schedule: Q01DX009 (ip), vehicle: other 93 % of control | dose: 150.0 mg/kg/injection, schedule: Q04DX003 (ip), vehicle: other 106 % of control

CCCNC(=O)c1cc(NC(=O)Nc2ccc(C3=NCCCN3)cc2)cc(NC(=O)Nc2ccc(C3=NCCCN3)cc2)c1
inactive: dose: 21.0 mg/kg/injection, schedule: Q01DX Z (ip), vehicle: carboxymethylcellulose (CMC) 115 % of control | dose: 42.0 mg/kg/injection, schedule: Q01DX Z (ip), vehicle: carboxymethylcellulose (CMC) 113 % of control | dose: 84.0 mg/kg/injection, schedule: Q01DX Z (ip), vehicle: carboxymethylcellulose (CMC) 117 % of control

O=C1CCCCC1Nc1ccc([N+](=O)[O-])cc1 (configuration not stated)
inactive: [7] 87 % of control | [8] 93 % of control | [9] 95 % of control

O=[N+]([O-])c1ccc(C[N+]2(CCC[N+]3(Cc4ccc([N+](=O)[O-])cc4)CCCC3)CCCC2)cc1
inactive: dose: 9.38 mg/kg/injection, schedule: Q01DX001 (ip), vehicle: other 107 % of control | dose: 18.75 mg/kg/injection, schedule: Q01DX001 (ip), vehicle: other 105 % of control

CSc1nc(NC(=O)CCl)cc(NC(=O)CCl)n1
inactive: dose: 12.5 mg/kg/injection, schedule: Q01DX005 (ip), vehicle: saline 105 % of control | dose: 25.0 mg/kg/injection, schedule: Q01DX005 (ip), vehicle: saline 112 % of control

O=C(NCCc1ccccc1)c1ccccc1
inactive: [10] 112 % of control | [11] 102 % of control | [12] 100 % of control

CS(=O)(=O)Nc1cc(Cl)c(NS(C)(=O)=O)c(Cl)c1Cl
inactive: dose: 100.0 mg/kg/injection, schedule: Q01DX001 (ip), vehicle: saline with Tween-80 101 % of control | dose: 200.0 mg/kg/injection, schedule: Q01DX001 (ip), vehicle: saline with Tween-80 96 % of control | dose: 400.0 mg/kg/injection, schedule: Q01DX001 (ip), vehicle: saline with Tween-80 107 % of control

CC(C)(C)N1CC(C(=O)c2ccccc2)C1c1ccccc1 (configuration not stated)
inactive: [7] 94 % of control | [1] 96 % of control | [10] 96 % of control and 107 % of control | [8] 94 % of control | [3] 101 % of control | [11] 90 % of control and 94 % of control | [9] 92 % of control | [5] 100 % of control | [12] 96 % of control and 98 % of control

Cn1c(=O)c2c(ncn2CCCCO)n(C)c1=O
inactive: [13] 94 % of control | [14] 95 % of control | dose: 400.0 mg/kg/injection, schedule: Q01DX009 (ip), vehicle: saline 92 % of control

O=[N+]([O-])c1ccc(CS(=O)Cc2ccccc2)cc1 (configuration not stated)
inactive: dose: 75.0 mg/kg/injection, schedule: Q01DX001 (ip), vehicle: carboxymethylcellulose (CMC) 91 % of control | dose: 150.0 mg/kg/injection, schedule: Q01DX001 (ip), vehicle: carboxymethylcellulose (CMC) 100 % of control | dose: 300.0 mg/kg/injection, schedule: Q01DX001 (ip), vehicle: carboxymethylcellulose (CMC) 100 % of control

CN1C(=O)c2ccccc2/C=C\c2ccccc21
inactive: [15] 103 % of control | [16] 92 % of control | [17] 87 % of control

O=[N+]([O-])c1cc(O)ccc1Cl
inactive: dose: 50.0 mg/kg/injection, schedule: Q01DX009 (ip), vehicle: saline 93 % of control | [13] 102 % of control | dose: 100.0 mg/kg/injection, schedule: Q04DX003 (ip), vehicle: alcohol 104 % of control | [14] 87 % of control

Cc1c(C)c(C)c(CNNC(=S)Nc2ccc(S(=O)(=O)N3CCCCC3)cc2)c(C)c1C
inactive: [15] 104 % of control | [16] 92 % of control | [17] 95 % of control

NNC(=O)C1CC1
inactive: dose: 12.5 mg/kg/injection, schedule: Q04DX003 (ip), vehicle: saline 101 % of control | dose: 25.0 mg/kg/injection, schedule: Q04DX003 (ip), vehicle: saline 97 % of control | dose: 50.0 mg/kg/injection, schedule: Q04DX003 (ip), vehicle: saline 96 % of control and 103 % of control

CCCCCCCCCCCCCSc1ccc(Br)cc1
inactive: [10] 96 % of control | [11] 96 % of control | [12] 96 % of control

C/C(=N\O)c1ccc2ccc3ccccc3c2c1
inactive: dose: 100.0 mg/kg/injection, schedule: Q01DX009 (ip), vehicle: saline sonified 105 % of control | dose: 100.0 mg/kg/injection, schedule: Q01DX009 (ip), vehicle: saline with Tween-80 101 % of control | [2] 103 % of control | dose: 200.0 mg/kg/injection, schedule: Q01DX009 (ip), vehicle: saline sonified 93 % of control | dose: 200.0 mg/kg/injection, schedule: Q01DX009 (ip), vehicle: saline with Tween-80 93 % of control | [4] 103 % of control | dose: 400.0 mg/kg/injection, schedule: Q01DX009 (ip), vehicle: saline sonified 94 % of control | dose: 400.0 mg/kg/injection, schedule: Q01DX009 (ip), vehicle: saline with Tween-80 95 % of control | [6] 115 % of control

From PubChem BioAssay AID248 (DTP/NCI, 2004)
